# Experimental data published in paper PMC9699427 (Viruses, 2022).
# Read-outs that look alike come from different tables or passages of the source.
# How the values were obtained:
# [1] = tested on: C8166 cells infected with HIV-1IIIB or TZM-bl cells infected with HIV-1YU-2; assay: Combination antiviral activity assay (CompuSyn CI and DRI); type: cell-based
# [2] = Cytotoxicity, MTT assay, C8166 cells; type: cell-based; settings: human, three days, read-out: CC50 (Mean ± SD)
# [3] = Cytotoxicity, MTT assay, MT-4 cells; type: cell-based; settings: human, three days, read-out: CC50 (Mean ± SD)
# [4] = Cytotoxicity, MTT assay, H9/HIV-1IIIB cells; type: cell-based; settings: human, three days, read-out: CC50 (Mean ± SD)
# [5] = Cytotoxicity, MTT assay, PBMCs; type: cell-based; settings: human, PBMC, seven days, read-out: CC50 (Mean ± SD)
# HIV-1IIIB [6] = assay: Anti-HIV-1 activity, syncytia (CPE) count in C8166 cells; type: cell-based; settings: Human immunodeficiency virus 1
# HIV-1IIIB [7] = assay: Anti-HIV-1 activity, MTT protection of MT-4 cells; type: cell-based; settings: Human immunodeficiency virus 1, MT4, MT-4, MTT
# [8] = tested on: HIV-1IIIB chronically infected H9 cells; assay: HIV-1 replication in chronically infected H9/HIV-1IIIB cells, p24; type: cell-based
# HIV-1Yu-2(G140S/Q148H) = assay: microbe, parasite or virus in culture; type: cell-based; settings: Human immunodeficiency virus 1, TZM-bl
# CYP3A4M = CYP3A4M (Homo sapiens, UniProt P08684); assay: Cytochrome P450 inhibition, human liver microsomes, midazolam
# CYP1A2 = molecular target: T1, CYP1A2 (Homo sapiens, UniProt P05177); assay: Cytochrome P450 inhibition, human liver microsomes, phenacetin
# T1 sequence (P05177 1-516): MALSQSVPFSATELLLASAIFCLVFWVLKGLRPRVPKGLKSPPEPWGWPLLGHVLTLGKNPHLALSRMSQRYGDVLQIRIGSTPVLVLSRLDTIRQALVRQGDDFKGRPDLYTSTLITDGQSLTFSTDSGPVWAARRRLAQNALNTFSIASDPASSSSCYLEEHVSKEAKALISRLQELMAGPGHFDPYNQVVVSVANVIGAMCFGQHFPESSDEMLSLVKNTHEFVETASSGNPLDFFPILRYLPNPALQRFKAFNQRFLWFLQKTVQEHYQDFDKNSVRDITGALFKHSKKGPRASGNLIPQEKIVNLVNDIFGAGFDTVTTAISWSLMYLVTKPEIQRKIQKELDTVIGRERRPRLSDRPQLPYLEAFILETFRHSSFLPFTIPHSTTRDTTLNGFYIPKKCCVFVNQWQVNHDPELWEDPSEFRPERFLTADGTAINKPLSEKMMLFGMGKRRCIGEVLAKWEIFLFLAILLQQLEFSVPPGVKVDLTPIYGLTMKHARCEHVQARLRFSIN
# CYP2C9 = CYP2C9 (Homo sapiens, UniProt P11712); assay: Cytochrome P450 inhibition, human liver microsomes, diclofenac
# HIV-1IIIB [9] = assay: Anti-HIV-1 activity in the presence of human serum, p24 in C8166; settings: Human immunodeficiency virus 1, C8166, HIV-1IIIB
# CYP2C19 = CYP2C19 (Homo sapiens, UniProt P33261); assay: Cytochrome P450 inhibition, human liver microsomes, S-mephenytoin
# CYP2D6 = CYP2D6 (Homo sapiens, UniProt P10635); assay: Cytochrome P450 inhibition, human liver microsomes, dextromethorphan
# [10] = single drug in combination K-5a2+T-20
# [11] = single drug in combination K-5a2+DTG
# [12] = single drug in combination K-5a2+TDF
# [13] = single drug in combination K-5a2+FTC
# [14] = single drug in combination K-5a2+3TC
# [15] = single drug in combination K-5a2+DRV
# [16] = single drug in combination K-5a2+DC521022
# [17] = single drug in combination K-5a2+ETR
# [18] = single drug in combination K-5a2+MVC
# [19] = single drug in combination K-5a2+AZT
# Sequence of CYP3A4M (P08684 whole entry): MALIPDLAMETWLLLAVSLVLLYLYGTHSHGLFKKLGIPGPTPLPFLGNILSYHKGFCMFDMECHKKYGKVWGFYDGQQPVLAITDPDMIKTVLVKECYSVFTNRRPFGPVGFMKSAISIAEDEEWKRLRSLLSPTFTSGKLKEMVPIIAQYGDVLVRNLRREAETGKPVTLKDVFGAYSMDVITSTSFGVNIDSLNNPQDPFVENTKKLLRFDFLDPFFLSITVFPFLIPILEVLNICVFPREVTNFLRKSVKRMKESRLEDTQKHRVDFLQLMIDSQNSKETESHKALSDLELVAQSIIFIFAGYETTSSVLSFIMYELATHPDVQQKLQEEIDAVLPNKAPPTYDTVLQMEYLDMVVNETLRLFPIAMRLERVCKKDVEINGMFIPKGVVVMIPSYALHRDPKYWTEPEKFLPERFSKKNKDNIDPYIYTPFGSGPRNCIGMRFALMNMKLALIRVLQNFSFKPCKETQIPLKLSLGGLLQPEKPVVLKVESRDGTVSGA
# Sequence of CYP2C9 (P11712 whole entry): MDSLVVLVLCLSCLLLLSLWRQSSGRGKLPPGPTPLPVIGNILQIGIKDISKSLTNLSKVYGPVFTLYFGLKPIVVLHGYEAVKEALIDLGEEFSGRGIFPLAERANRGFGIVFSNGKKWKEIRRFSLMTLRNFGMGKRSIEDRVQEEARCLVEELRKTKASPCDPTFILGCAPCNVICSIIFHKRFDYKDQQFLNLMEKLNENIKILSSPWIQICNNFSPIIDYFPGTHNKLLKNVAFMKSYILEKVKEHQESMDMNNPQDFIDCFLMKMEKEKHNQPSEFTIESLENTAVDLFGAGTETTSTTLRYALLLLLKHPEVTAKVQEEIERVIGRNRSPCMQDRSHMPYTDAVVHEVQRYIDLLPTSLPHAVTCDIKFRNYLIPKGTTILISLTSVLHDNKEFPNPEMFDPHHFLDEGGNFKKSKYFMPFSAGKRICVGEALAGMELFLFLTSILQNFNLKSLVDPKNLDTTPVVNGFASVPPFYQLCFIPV
# Sequence of CYP2D6 (P10635 whole entry): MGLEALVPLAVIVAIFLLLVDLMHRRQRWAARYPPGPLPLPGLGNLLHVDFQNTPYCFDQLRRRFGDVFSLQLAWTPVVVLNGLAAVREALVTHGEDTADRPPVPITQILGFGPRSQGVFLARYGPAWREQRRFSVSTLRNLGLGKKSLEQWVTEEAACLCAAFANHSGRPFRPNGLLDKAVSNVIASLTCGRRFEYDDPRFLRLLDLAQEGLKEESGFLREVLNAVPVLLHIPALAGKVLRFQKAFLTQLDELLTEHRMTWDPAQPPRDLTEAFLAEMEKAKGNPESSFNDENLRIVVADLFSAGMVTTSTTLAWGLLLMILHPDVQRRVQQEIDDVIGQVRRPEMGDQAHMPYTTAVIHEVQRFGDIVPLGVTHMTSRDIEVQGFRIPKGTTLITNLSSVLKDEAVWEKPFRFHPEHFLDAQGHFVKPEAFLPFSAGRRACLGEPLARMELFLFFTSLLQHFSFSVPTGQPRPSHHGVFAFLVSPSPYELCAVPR
# Sequence of CYP2C19 (P33261 whole entry): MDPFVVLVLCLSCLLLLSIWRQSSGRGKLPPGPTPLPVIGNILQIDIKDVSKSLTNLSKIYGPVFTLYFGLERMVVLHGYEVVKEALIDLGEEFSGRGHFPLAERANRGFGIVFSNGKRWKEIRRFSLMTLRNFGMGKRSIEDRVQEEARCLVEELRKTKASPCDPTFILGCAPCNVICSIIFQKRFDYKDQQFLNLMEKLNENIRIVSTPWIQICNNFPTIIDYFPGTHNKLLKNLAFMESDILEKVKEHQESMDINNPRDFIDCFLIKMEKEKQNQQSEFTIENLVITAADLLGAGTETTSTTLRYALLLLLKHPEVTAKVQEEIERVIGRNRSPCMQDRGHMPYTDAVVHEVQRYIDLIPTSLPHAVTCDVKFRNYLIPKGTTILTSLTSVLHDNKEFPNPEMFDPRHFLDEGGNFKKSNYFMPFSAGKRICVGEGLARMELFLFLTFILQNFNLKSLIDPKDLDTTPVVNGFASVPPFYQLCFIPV
compound,measurement,setting,value
"enfuvirtide [T-20, reference compound]",DRI Value ED75,[1]; [10],2.05 ± 0.42
same,DRI Value ED90,[1]; [10],2.37 ± 0.18
same,DRI Value ED95,[1]; [10],2.69 ± 0.66
"C[C@@H]1CCO[C@H]2Cn3cc(C(=O)NCc4ccc(F)cc4F)c(=O)c(O)c3C(=O)N12 [DTG, dolutegravir, reference compound]",DRI Value ED75,[1]; [11],2.37 ± 0.28
same,DRI Value ED90,[1]; [11],2.50 ± 0.41
same,DRI Value ED95,[1]; [11],2.61 ± 0.68
"Cc1nnc(C(=O)NC(C)(C)c2nc(C(=O)NCc3ccc(F)cc3)c(O)c(=O)n2C)o1 [RAL, raltegravir, reference compound]",DRI Value ED75,[1],3.08 ± 1.11
same,DRI Value ED90,[1],3.50 ± 1.64
same,DRI Value ED95,[1],3.83 ± 2.07
"C[C@H](Cn1cnc2c(N)ncnc21)OCP(=O)(O)O [TDF, tenofovir, reference compound]",DRI Value ED75,[1]; [12],3.22 ± 0.71
same,DRI Value ED90,[1]; [12],3.46 ± 0.35
same,DRI Value ED95,[1]; [12],3.69 ± 0.66
"Nc1nc(=O)n([C@@H]2CS[C@H](CO)O2)cc1F [FTC, emtricitabine, reference compound]",DRI Value ED75,[1]; [13],2.38 ± 0.10
same,DRI Value ED90,[1]; [13],2.22 ± 0.23
same,DRI Value ED95,[1]; [13],2.11 ± 0.32
"Nc1ccn([C@@H]2CS[C@H](CO)O2)c(=O)n1 [3TC, lamivudine, reference compound]",DRI Value ED75,[1]; [14],2.83 ± 0.52
same,DRI Value ED90,[1]; [14],3.28 ± 0.80
same,DRI Value ED95,[1]; [14],3.64 ± 1.06
"CC(C)CN(C[C@@H](O)[C@H](Cc1ccccc1)NC(=O)O[C@H]1CO[C@H]2OCC[C@H]21)S(=O)(=O)c1ccc(N)cc1 [DRV, darunavir, reference compound]",DRI Value ED75,[1]; [15],2.82 ± 0.21
same,DRI Value ED90,[1]; [15],3.41 ± 0.86
same,DRI Value ED95,[1]; [15],3.93 ± 1.44
"thioraviroc [DC521022, reference compound]",DRI Value ED75,[1]; [16],5.41 ± 4.21
same,DRI Value ED90,[1]; [16],7.32 ± 6.96
same,DRI Value ED95,[1]; [16],9.08 ± 9.61
"Cc1cc(C#N)cc(C)c1Oc1nc(Nc2ccc(C#N)cc2)nc(N)c1Br [ETR, etravirine, reference compound]",CC50 at 3 days,[2],> 50 µM
same,CC50 at 3 days,[3],27.4 ± 5.46 µM
same,CC50 at 3 days,[4],30.4 ± 1.59 µM
same,CC50 at 7 days,[5],34.5 ± 3.06 µM
same,EC50,HIV-1IIIB [6],1.74 ± 0.67 nM
same,EC50,HIV-1IIIB [7],6.15 ± 1.76 nM
same,EC50,"[8]; Human immunodeficiency virus 1, HIV-1IIIB, H9/HIV-1IIIB chronically infected, p24",> 50 µM
same,Inhibition of HIV-1 replication in HIV-1IIIB chronically infected H9 cells,[8]; at a concentration of 50.00 µM,could not inhibit the replication
same,EC50,HIV-1Yu-2(G140S/Q148H),< 0.13 nM
same,DRI Value ED75,[1]; [17],2.44 ± 0.52
same,DRI Value ED90,[1]; [17],2.20 ± 0.58
same,DRI Value ED95,[1]; [17],2.06 ± 0.61
same,IC50,CYP3A4M,41.3 µM
same,IC50,CYP1A2,7.48 µM
same,IC50,CYP2C9,280 nM
same,EC50,"HIV-1IIIB [9]; C8166, p24, 20% human serum",6.56 ± 4.89 nM
same,EC50,"HIV-1IIIB [9]; C8166, p24, 40% human serum",2.09 ± 0.65 nM
same,IC50,CYP2C19,500 nM
same,IC50,CYP2D6,12 µM
"maraviroc [MVC, reference compound]",DRI Value ED75,[1]; [18],4.58 ± 0.50
same,DRI Value ED90,[1]; [18],5.10 ± 0.83
same,DRI Value ED95,[1]; [18],5.49 ± 1.09
"Cc1cn([C@H]2C[C@H](N=[N+]=[N-])[C@@H](CO)O2)c(=O)[nH]c1=O [AZT, zidovudine, reference compound]",DRI Value ED75,[1]; [19],4.88 ± 2.30
same,DRI Value ED90,[1]; [19],5.60 ± 2.33
same,DRI Value ED95,[1]; [19],6.52 ± 3.94
